Test results: patent US20240398805A1, “QUINAZOLINE DERIVED COMPOUNDS AS EGFR INHIBITORS AND THEIR USES THEREOF” (ACCUTAR BIOTECHNOLOGY INC., priority 2021, published 2024)

How the values were obtained:
Type in all cases: cell-based
[1] = tested on: HCC827-SVD cells (human EGFR exon 20 insertion mutant D770_N771 insSVD); assay: Cell growth inhibition (CellTiter-Glo, 3 days) in HCC827-SVD; conditions: 72 h, 3 days after administration
Outline: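 HCC827 cells carrying lentiviral codon-optimized EGFR D770_N771 insSVD, with endogenous EGFR knocked out by CRISPR (single clone), seeded at 5000 cells/well in RPMI with 10% FBS. Viability read by CellTiter-Glo luminescence.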

HCC827 cells = assay: Cell growth inhibition (CellTiter-Glo, 3 days) in HCC827; conditions: Homo sapiens, 72 h, 3 days after administration
Outline: (§1)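 HCC827 cells in RPMI/10% FBS and A431 cells in DMEM/10% FBS were seeded at 5000 cells/well and left overnight. Compound was then added over a concentration range for 3 days of incubation, and viability was read by CellTiter-Glo luminescence.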

[2] = tested on: HCC827-YVMA cells (human ERBB2 exon20 insertion mutant A775_G776ins YVMA); assay: Cell growth inhibition (CellTiter-Glo, 3 days) in HCC827-YVMA; conditions: 72 h, 3 days after administration
Outline: (§2)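 Growth inhibition used a CellTiter-Glo luminescence read-out after 3 days of compound exposure at various concentrations. Cells were plated the day before at 5000/well in RPMI plus 10% FBS. The lines are HCC827 transduced by lentivirus with codon-optimized EGFR ASV or ERBB2 YVMA exon 20 insertions.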

[3] = tested on: HCC827-ASV cells (human EGFR exon 20 insertion mutant A769_D770insASV); assay: Cell growth inhibition (CellTiter-Glo, 3 days) in HCC827-ASV; conditions: 72 h, 3 days after administration
Outline: as §2

A431 cells = assay: Cell growth inhibition (CellTiter-Glo, 3 days) in A431; conditions: Homo sapiens, A-431, 72 h, 3 days after administration
Outline: as §1

| GI50 [1] | GI50 (HCC827 cells) | GI50 [2] | GI50 [3] | GI50 (A431 cells) | Structure (SMILES) |
| --- | --- | --- | --- | --- | --- |
| < 0.03 µM | 0.06 to 0.1 µM | < 0.03 µM | < 0.03 µM | 0.6 to 1 µM | C=CC(=O)N1CCC(Nc2cc3c(Nc4ccc(Oc5ccnc(N6CC(F)(F)C6)c5)cc4F)ncnc3cc2OC)CC1 [Example 201, 1-(4-((4-((4-((2-(3,3-difluoroazetidin-1-yl)pyridin-4-yl)oxy)-2-fluorophenyl)amino)-7-methoxyquinazolin-6-yl)amino)piperidin-1-yl)prop-2-en-1-one] |
| < 0.03 µM | < 0.03 µM | < 0.03 µM | < 0.03 µM | 0.1 to 0.3 µM | C=CC(=O)N1CCC(Nc2cc3c(Nc4ccc(Oc5ccnc(N6CC(C)(C)C6)c5)cc4F)ncnc3cc2OC)CC1 [Example 202, 1-(4-((4-((4-((2-(3,3-dimethylazetidin-1-yl)pyridin-4-yl)oxy)-2-fluorophenyl)amino)-7-methoxyquinazolin-6-yl)amino)piperidin-1-yl)prop-2-en-1-one] |
| < 0.03 µM | 0.1 to 0.3 µM | < 0.03 µM | < 0.03 µM | 0.1 to 0.3 µM | C=CC(=O)N1CCC(Nc2cc3c(Nc4ccc(Oc5ccnc(N6CC(C)(O)C6)c5)cc4F)ncnc3cc2OC)CC1 [Example 203, 1-(4-((4-((2-fluoro-4-((2-(3-hydroxy-3-methylazetidin-1-yl)pyridin-4-yl)oxy)phenyl)amino)-7-methoxyquinazolin-6-yl)amino)piperidin-1-yl)prop-2-en-1-one] |
| < 0.03 µM | 0.06 to 0.1 µM | < 0.03 µM | < 0.03 µM | 0.1 to 0.3 µM | C=CC(=O)N1CCC(Nc2cc3c(Nc4ccc(Oc5ccnc(N6CC7(CCOCC7)C6)c5)cc4F)ncnc3cc2OC)CC1 [Example 204, 1-(4-((4-((4-((2-(7-oxa-2-azaspiro[3.5]nonan-2-yl)pyridin-4-yl)oxy)-2-fluorophenyl)amino)-7-methoxyquinazolin-6-yl)amino)piperidin-1-yl)prop-2-en-1-one] |
| < 0.03 µM | < 0.03 µM | < 0.03 µM | < 0.03 µM | 0.1 to 0.3 µM | C=CC(=O)N1CCC(Nc2cc3c(Nc4ccc(Oc5ccnc(N6CC(C)(C#N)C6)c5)cc4F)ncnc3cc2OC)CC1 [Example 205, 1-(4-(4-((6-((1-acryloylpiperidin-4-yl)amino)-7-methoxyquinazolin-4-yl)amino)-3-fluorophenoxy)pyridin-2-yl)-3-methylazetidine-3-carbonitrile] |
| < 0.03 µM | 0.06 to 0.1 µM | < 0.03 µM | < 0.03 µM | 0.1 to 0.3 µM | C=CC(=O)N1CCC(Nc2cc3c(Nc4ccc(Oc5ccnc(N6CC(O)(C(F)(F)F)C6)c5)cc4F)ncnc3cc2OC)CC1 [Example 206, 1-(4-((4-((2-fluoro-4-((2-(3-hydroxy-3-(trifluoromethyl)azetidin-1-yl)pyridin-4-yl)oxy)phenyl)amino)-7-methoxyquinazolin-6-yl)amino)piperidin-1-yl)prop-2-en-1-one] |
| < 0.03 µM | 0.03 to 0.06 µM | < 0.03 µM | < 0.03 µM | 0.1 to 0.3 µM | C=CC(=O)N1CCC(Nc2cc3c(Nc4ccc(Oc5ccnc(N6CC(C)(OC)C6)c5)cc4F)ncnc3cc2OC)CC1 [Example 207, 1-(4-((4-((2-fluoro-4-((2-(3-methoxy-3-methylazetidin-1-yl)pyridin-4-yl)oxy)phenyl)amino)-7-methoxyquinazolin-6-yl)amino)piperidin-1-yl)prop-2-en-1-one] |
| < 0.03 µM | 0.1 to 0.3 µM | 0.03 to 0.06 µM | < 0.03 µM | 0.6 to 1 µM | C=CC(=O)N1CCC(Nc2cc3c(Nc4ccc(Oc5ccnc(N6CC(CC#N)C6)c5)cc4F)ncnc3cc2OC)CC1 [Example 208, 2-(1-(4-(4-((6-((1-acryloylpiperidin-4-yl)amino)-7-methoxyquinazolin-4-yl)amino)-3-fluorophenoxy)pyridin-2-yl)azetidin-3-yl)acetonitrile] |
| 0.1 to 0.3 µM | 0.1 to 0.3 µM | 0.06 to 0.1 µM | 0.1 to 0.3 µM | 0.6 to 1 µM | C=CC(=O)N1CCC(Nc2cc3c(Nc4ccc(Oc5ccnc(CN6CCCC6)c5)cc4F)ncnc3cc2OC)CC1 [Example 209, 1-(4-((4-((2-fluoro-4-((2-(pyrrolidin-1-ylmethyl)pyridin-4-yl)oxy)phenyl)amino)-7-methoxyquinazolin-6-yl)amino)piperidin-1-yl)prop-2-en-1-one] |
| ≥ 1 µM | ≥ 1 µM | 0.6 to 1 µM | ≥ 1 µM | ≥ 1 µM | C=CC(=O)N1CCC(Nc2cc3c(Nc4ccc(Oc5ccnc(C(=O)OC)c5)cc4F)ncnc3cc2OC)CC1 [Example 211, methyl 4-(4-((6-((1-acryloylpiperidin-4-yl)amino)-7-methoxyquinazolin-4-yl)amino)-3-fluorophenoxy) picolinate] |
| ≥ 1 µM | ≥ 1 µM | ≥ 1 µM | ≥ 1 µM | ≥ 1 µM | C=CC(=O)N1CCC(Nc2cc3c(Nc4ccc(Oc5ccnc(C(=O)O)c5)cc4F)ncnc3cc2OC)CC1 [Example 212, 4-(4-((6-((1-acryloylpiperidin-4-yl)amino)-7-methoxyquinazolin-4-yl)amino)-3-fluorophenoxy) picolinic acid] |
| 0.3 to 0.6 µM | 0.3 to 0.6 µM | 0.3 to 0.6 µM | 0.1 to 0.3 µM | ≥ 1 µM | C=CC(=O)N1CCC(Nc2cc3c(Nc4ccc(Oc5ccnc(C6=CCN(C)CC6)c5)cc4F)ncnc3cc2OC)CC1 [Example 213, 1-(4-((4-((2-fluoro-4-((1′-methyl-1′,2′,3′,6′-tetrahydro-[2,4′-bipyridin]-4-yl)oxy)phenyl)amino)-7-methoxyquinazolin-6-yl)amino)piperidin-1-yl)prop-2-en-1-one] |
| 0.03 to 0.06 µM | 0.3 to 0.6 µM | < 0.03 µM | < 0.03 µM | ≥ 1 µM | C=CC(=O)N1CCC(Nc2cc3c(Nc4ccc(Oc5ccnc(N6CCC[C@@H](O)C6)c5)cc4F)ncnc3cc2OC)CC1 [Example 214, (R)-1-(4-((4-((2-fluoro-4-((2-(3-hydroxypiperidin-1-yl)pyridin-4-yl)oxy)phenyl)amino)-7-methoxyquinazolin-6-yl)amino)piperidin-1-yl)prop-2-en-1-one] |
| 0.3 to 0.6 µM | ≥ 1 µM | 0.6 to 1 µM | 0.6 to 1 µM | ≥ 1 µM | C=CC(=O)N1CCC(Nc2cc3c(Nc4ccc(Oc5ccnc(N6CCC[C@@H](N)C6)c5)cc4F)ncnc3cc2OC)CC1 [Example 217, (R)-1-(4-((4-((4-((2-(3-aminopiperidin-1-yl)pyridin-4-yl)oxy)-2-fluorophenyl)amino)-7-methoxyquinazolin-6-yl)amino)piperidin-1-yl)prop-2-en-1-one] |
| 0.03 to 0.06 µM | 0.1 to 0.3 µM | 0.03 to 0.06 µM | 0.03 to 0.06 µM | ≥ 1 µM | C=CC(=O)N1CCC(Nc2cc3c(Nc4ccc(Oc5ccnc(N6CCC(F)(F)CC6)c5)cc4F)ncnc3cc2OC)CC1 [Example 218, 1-(4-((4-((4-((2-(4,4-difluoropiperidin-1-yl)pyridin-4-yl)oxy)-2-fluorophenyl)amino)-7-methoxyquinazolin-6-yl)amino)piperidin-1-yl)prop-2-en-1-one] |
